# In BindingDB's records for doi:10.1021/jm00044a007 (Research Triangle Institute, 1994):
# Molecular target: Sodium-dependent dopamine transporter (Rattus norvegicus, UniProt P23977)
# Assay: Concentration required to inhibit 50% of radioligand binding ([3H]WIN-35428) to the dopamine (DA) transporter in rat
# Chain of Sodium-dependent dopamine transporter (P23977 whole entry): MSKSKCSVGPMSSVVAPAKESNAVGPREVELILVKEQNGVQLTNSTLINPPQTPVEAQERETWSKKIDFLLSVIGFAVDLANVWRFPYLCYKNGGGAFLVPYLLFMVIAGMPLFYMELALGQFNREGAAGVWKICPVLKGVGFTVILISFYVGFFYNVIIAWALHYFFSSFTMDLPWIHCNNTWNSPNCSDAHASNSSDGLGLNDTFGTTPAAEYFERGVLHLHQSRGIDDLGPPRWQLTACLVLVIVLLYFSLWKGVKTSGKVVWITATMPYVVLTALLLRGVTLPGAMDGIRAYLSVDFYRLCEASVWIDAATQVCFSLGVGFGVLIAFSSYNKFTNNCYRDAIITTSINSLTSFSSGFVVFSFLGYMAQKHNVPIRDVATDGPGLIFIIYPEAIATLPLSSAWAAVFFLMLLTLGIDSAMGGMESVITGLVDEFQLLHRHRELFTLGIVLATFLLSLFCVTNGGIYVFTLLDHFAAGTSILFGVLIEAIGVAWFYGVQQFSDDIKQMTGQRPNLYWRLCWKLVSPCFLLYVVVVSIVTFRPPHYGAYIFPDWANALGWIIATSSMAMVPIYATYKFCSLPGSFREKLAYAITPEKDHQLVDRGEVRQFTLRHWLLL
structure (smiles),measurement,value
"COC(=O)C1C2CCC(C[C@@H]1c1cc[c]([Sn]([CH3])([CH3])[CH3])cc1)N2C (stereo partly drawn) [(3S,8R)-8-Methyl-3-(4-trimethylstannanyl-phenyl)-8-aza-bicyclo[3.2.1]octane-2-carboxylic acid methyl ester]",IC50,144 nM
